According to patent US9556492B2, “Corn plant MON88017 and compositions and methods for detection thereof” (Monsanto Technology LLC, priority 2003, dated 2017):

Tested on: corn rootworm larvae
Test: corn rootworm feeding damage field screen, root damage rated on the Node-Injury Scale
Format: in vivo, Diabrotica spp.
Settings: Node-Injury Scale 0-3; insecticide treated non-insecticidal protein containing corn plants; 5 ounces per 1000 feet of row; artificially infested plots
Protocol: Transgenic corn plants were assayed for corn rootworm resistance to feeding damage by greenhouse and field screens. Root damage was rated using the Node-Injury Scale (NIS) developed by Oleson and Tollefson of Iowa State University, this scale rates damage done to corn roots using 0-3 values. The 0.00 value describes no feeding damage and is the lowest rating, 1.00 describes one node or the equivalent of an entire node eaten back to within approximately two inches of the stalk, 2.00 describes two complete nodes eaten, and 3.00 describes three or more nodes eaten and is the highest rating. Damage in between complete nodes eaten is noted as the percentage of the node missing, i.e., 1.50 describes 1½ nodes eaten, 0.25 describes ¼ of one node eaten. Field plots were artificially infested with corn rootworm larvae by applying 1500-2000 eggs per linear foot of row at the V3-V4 growth stage. Insecticide treated rows were treated with Tefluthrin insecticide (Force® 3G, Zeneca Ag Products) at a rate of 5 ounces per 1000 feet of row.

Cc1c(F)c(F)c(COC(=O)[C@@H]2[C@H](/C=C(\Cl)C(F)(F)F)C2(C)C)c(F)c1F (racemic) [Tefluthrin]
average RDR: 0.44
